Consider 13 compounds from ChEMBL document CHEMBL2069212, “Identification and in vivo and in vitro characterization of long acting and melanocortin 4 receptor (MC4-R) selective α-melanocyte-stimulating hormone (α-MSH) analogues” (J Med Chem, 2012).

Molecules are shown by their SMILES.

Assay [1] addresses Melanocyte-stimulating hormone receptor (Homo sapiens, UniProt Q01726). The assay can be described thus: Displacement of [125I]-NAD-alpha-MSH from human recombinant MC1 receptor expressed in BHK570 cells after 90 mins in presence of ovalbumin. Format: cell-based.
The next assay has as its target Melanocortin receptor 3 (Homo sapiens, UniProt P41968). The assay can be described thus: Displacement of [125I]-NAD-alpha-MSH from human recombinant MC3 receptor expressed in BHK570 cells after 1 hr in presence of ovalbumin. Format: cell-based.
The next assay concerns the target Melanocortin receptor 5 (Homo sapiens, UniProt P33032). The assay can be described thus: Displacement of [125I]-NAD-alpha-MSH from human recombinant MC3 receptor human MC5 expressed in BHK570 cells after 1 hr in presence of ovalbumin. In kind it is cell-based.
Assay [2] has as its target T1, Melanocortin receptor 4 (Homo sapiens, UniProt P32245). The assay can be described thus: Displacement of [125I]-NAD-alpha-MSH from MC4 receptor after 2 hrs by gamma counting in presence of ovalbumin.
Assay [3] addresses T1, Melanocortin receptor 4. The assay can be described thus: Agonist activity at human recombinant MC4 receptor expressed in BHK570 cells assessed as induction of […] accumulation in presence of 0.1% human serum albumin. In kind it is functional, cell-based.
The test system of assay [4] is Rattus norvegicus. Kind of assay: Antiobesity activity in Sprague-Dawley rat assessed as reduction of food intake at 3 mg/kg, sc qd measured up to 7 hrs relative to control. The settings on record: route subcutaneous. Further details: scale not given: the % may be the effect or the level left. Format: functional.
Assay [5] deals with Rattus norvegicus. The assay can be described thus: Antiobesity activity in Sprague-Dawley rat assessed as reduction of food intake at 3 mg/kg, sc qd measured after 7 to 24 hrs relative to control. In kind it is functional. Further details: scale not given: the % may be the effect or the level left. The settings on record: route subcutaneous.
The subject of assay [6] is Rattus norvegicus. Kind of assay: Antiobesity activity in Sprague-Dawley rat assessed as reduction of food intake at 3 mg/kg, sc qd measured after 24 to 48 hrs relative to control. Format: functional. The settings on record: route subcutaneous.

Chain of Melanocortin receptor 5 (P33032 whole entry): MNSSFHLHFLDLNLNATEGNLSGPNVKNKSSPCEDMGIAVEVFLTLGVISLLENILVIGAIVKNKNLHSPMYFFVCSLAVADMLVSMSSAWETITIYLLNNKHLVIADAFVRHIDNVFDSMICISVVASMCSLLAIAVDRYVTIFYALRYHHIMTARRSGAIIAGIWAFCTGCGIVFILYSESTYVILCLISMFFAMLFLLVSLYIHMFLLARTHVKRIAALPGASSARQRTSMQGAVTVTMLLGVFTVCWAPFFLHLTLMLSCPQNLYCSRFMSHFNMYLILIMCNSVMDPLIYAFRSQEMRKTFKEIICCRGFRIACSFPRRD
Chain of Melanocyte-stimulating hormone receptor (Q01726 whole entry): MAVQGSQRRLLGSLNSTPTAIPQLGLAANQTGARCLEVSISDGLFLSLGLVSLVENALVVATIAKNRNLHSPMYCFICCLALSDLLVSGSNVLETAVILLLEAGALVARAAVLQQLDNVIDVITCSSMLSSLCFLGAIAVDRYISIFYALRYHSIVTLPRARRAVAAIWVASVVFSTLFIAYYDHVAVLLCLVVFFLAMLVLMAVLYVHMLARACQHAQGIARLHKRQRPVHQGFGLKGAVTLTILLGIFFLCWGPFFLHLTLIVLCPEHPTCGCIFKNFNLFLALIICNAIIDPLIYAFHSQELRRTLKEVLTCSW
T1 sequence (P32245 whole entry): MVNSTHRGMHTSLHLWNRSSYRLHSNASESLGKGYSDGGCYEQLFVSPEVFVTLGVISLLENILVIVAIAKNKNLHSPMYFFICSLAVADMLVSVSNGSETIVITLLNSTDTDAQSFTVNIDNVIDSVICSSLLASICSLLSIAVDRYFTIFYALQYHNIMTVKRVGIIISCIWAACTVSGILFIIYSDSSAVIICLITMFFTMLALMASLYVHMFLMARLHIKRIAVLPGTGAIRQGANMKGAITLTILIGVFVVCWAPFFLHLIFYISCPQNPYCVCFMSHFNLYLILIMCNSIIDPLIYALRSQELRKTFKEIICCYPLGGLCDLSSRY
Chain of Melanocortin receptor 3 (P41968 whole entry): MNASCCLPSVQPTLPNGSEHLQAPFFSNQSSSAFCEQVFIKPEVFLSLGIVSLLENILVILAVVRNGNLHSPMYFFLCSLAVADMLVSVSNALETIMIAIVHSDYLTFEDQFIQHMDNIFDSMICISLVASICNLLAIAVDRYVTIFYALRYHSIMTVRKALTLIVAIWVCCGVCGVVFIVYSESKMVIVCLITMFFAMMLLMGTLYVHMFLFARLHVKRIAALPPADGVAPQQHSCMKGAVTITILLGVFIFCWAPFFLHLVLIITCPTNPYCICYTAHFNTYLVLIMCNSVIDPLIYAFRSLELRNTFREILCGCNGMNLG

`CCCC[C@H](NC(=O)[C@H](CN)NC(=O)[C@H](Cc1cnc[nH]1)NC(=O)[C@H](CCC(N)=O)NC(=O)[C@H](CO)NC(=O)CNC(=O)COCCOCCNC(=O)CCCCCCCCCCCCCCCc1nnn[nH]1)C(=O)N[C@H]1CCC(=O)NCCCC[C@@H](C(N)=O)NC(=O)[C@H](Cc2c[nH]c3ccccc23)NC(=O)[C@H](CCCN=C(N)N)NC(=O)[C@@H](Cc2ccccc2)NC(=O)[C@@H]2C[C@@H](O)CN2C1=O`: the Ki was found to be 400 nM in assay [1], 42 nM at Melanocortin receptor 3, 10 nM on Melanocortin receptor 5 and 0.17 nM at Melanocortin receptor 4 [2]. Moreover, on Melanocortin receptor 4 [3], the concentration giving a half-maximal response (EC50) worked out at 62 nM.

For the compound `CCCC[C@H](NC(=O)[C@H](CCC(=O)O)NC(=O)[C@H](CCC(=O)O)NC(=O)[C@H](CCC(=O)O)NC(=O)[C@H](CCC(=O)O)NC(=O)CNC(=O)COCCOCCNC(=O)CCCCCCCCCCCCCCCc1nnn[nH]1)C(=O)N[C@H]1CCC(=O)NCCCC[C@@H](C(N)=O)NC(=O)[C@H](Cc2c[nH]c3ccccc23)NC(=O)[C@H](CCCNC(=N)N)NC(=O)[C@@H](Cc2ccccc2)NC(=O)[C@@H]2C[C@@H](O)CN2C1=O`, the Ki in assay [1] is over 10000 nM; on Melanocortin receptor 3, 1600 nM; at Melanocortin receptor 5, 710 nM; at Melanocortin receptor 4 [2], 250 nM.

On to `CCCCCCCCCCCCCCCC(=O)NCC(=O)N[C@@H](CO)C(=O)N[C@@H](CCC(N)=O)C(=O)N[C@@H](Cc1cnc[nH]1)C(=O)N[C@@H](CO)C(=O)N[C@@H](CCCC)C(=O)N[C@H]1CCC(=O)NCCCC[C@@H](C(N)=O)NC(=O)[C@H](Cc2c[nH]c3ccccc23)NC(=O)[C@H](CCCNC(=N)N)NC(=O)[C@@H](Cc2ccccc2)NC(=O)[C@@H]2C[C@@H](O)CN2C1=O`, for which the Ki in assay [1] was 8 nM; on Melanocortin receptor 3 it was 2.5 nM; at Melanocortin receptor 5, 1.6 nM; at Melanocortin receptor 4 [2] it was 0.12 nM. Further, the concentration giving a half-maximal response (EC50) at Melanocortin receptor 4 [3] was found to be 0.17 nM. Moreover, the Activity in the assay on Rattus norvegicus [4] was 63%; with Rattus norvegicus [5], 58%. Further, the “Food intake relative to control” value with Rattus norvegicus [6] is recorded as 81%.

For `CCCC[C@H](NC(=O)[C@@H](N)CNC(=O)[C@H](Cc1cnc[nH]1)NC(=O)[C@H](CCC(N)=O)NC(=O)[C@H](CO)NC(=O)CNC(=O)COCCOCCNC(=O)CCCCCCCCCCCCCCCc1nnn[nH]1)C(=O)N[C@H]1CCC(=O)NCCCC[C@@H](C(N)=O)NC(=O)[C@H](Cc2c[nH]c3ccccc23)NC(=O)[C@H](CCCN=C(N)N)NC(=O)[C@@H](Cc2ccccc2)NC(=O)[C@@H]2C[C@@H](O)CN2C1=O`, the Ki in assay [1] is 700 nM; at Melanocortin receptor 3 it was 121 nM; at Melanocortin receptor 5, 40 nM; at Melanocortin receptor 4 [2] it was 0.17 nM. In addition, the concentration giving a half-maximal response (EC50) on Melanocortin receptor 4 [3] amounted to 85 nM.

Take `CCCC[C@H](NC(=O)[C@H](CN(C)C)NC(=O)[C@H](Cc1cnc[nH]1)NC(=O)[C@H](CCC(N)=O)NC(=O)[C@H](CO)NC(=O)CNC(=O)COCCOCCNC(=O)CCCCCCCCCCCCCCCc1nnn[nH]1)C(=O)N[C@H]1CCC(=O)NCCCC[C@@H](C(N)=O)NC(=O)[C@H](Cc2c[nH]c3ccccc23)NC(=O)[C@H](CCCNC(=N)N)NC(=O)[C@@H](Cc2ccccc2)NC(=O)[C@@H]2C[C@@H](O)CN2C1=O`: the Ki was 440 nM in assay [1], 11 nM at Melanocortin receptor 3, 2.9 nM at Melanocortin receptor 5 and 0.13 nM on Melanocortin receptor 4 [2]. Further, the half-maximal effective concentration (EC50) on Melanocortin receptor 4 [3] was found to be 130 nM. In addition, the Activity with Rattus norvegicus [4] was determined as 62%; in the assay with Rattus norvegicus [5], 60%. For the same compound, the “Food intake relative to control” value in the assay with Rattus norvegicus [6] is 82%.

Turning to `CCCCCCCCCCCCCCCC(=O)NCC(=O)N[C@@H](CO)C(=O)N[C@@H](CCC(N)=O)C(=O)N[C@@H](CCCCNC(=N)N)C(=O)N[C@@H](CO)C(=O)N[C@@H](CCCC)C(=O)N[C@H]1CCC(=O)NCCCC[C@@H](C(N)=O)NC(=O)[C@H](Cc2c[nH]c3ccccc23)NC(=O)[C@H](CCCNC(=N)N)NC(=O)[C@@H](Cc2ccccc2)NC(=O)[C@@H]2C[C@@H](O)CN2C1=O`, the inhibitory constant (Ki) was 3.2 nM in assay [1], 2 nM on Melanocortin receptor 3, 0.47 nM on Melanocortin receptor 5 and 0.37 nM at Melanocortin receptor 4 [2]. In addition, at Melanocortin receptor 4 [3], the EC50 is 0.04 nM. For the same compound, the Activity was 71% in the assay on Rattus norvegicus [4] and 57% in the assay with Rattus norvegicus [5]. The “Food intake relative to control” value with Rattus norvegicus [6] was found to be 82%.

`CCCC[C@H](NC(=O)[C@H](CO)NC(=O)[C@H](Cc1cnc[nH]1)NC(=O)[C@H](CCC(N)=O)NC(=O)[C@H](CO)NC(=O)CNC(C)=O)C(=O)N[C@H]1CCC(=O)NCCCC[C@@H](C(N)=O)NC(=O)[C@H](Cc2c[nH]c3ccccc23)NC(=O)[C@H](CCCNC(=N)N)NC(=O)[C@@H](Cc2ccccc2)NC(=O)[C@@H]2C[C@@H](O)CN2C1=O`: the Ki in assay [1] was found to be 200 nM; on Melanocortin receptor 3, 45 nM; on Melanocortin receptor 5 it was 5.1 nM; on Melanocortin receptor 4 [2] it was 4.6 nM. At Melanocortin receptor 4 [3], the EC50 is 2 nM. For the same compound, the Activity in the assay with Rattus norvegicus [4] was found to be 55%; in the assay with Rattus norvegicus [5], 99%. Also, in the assay on Rattus norvegicus [6], the “Food intake relative to control” value was determined as 103%.

In the case of `CCCCCCCCCCCCCCCC(=O)NCC(=O)NCC(=O)NCC(=O)NCC(=O)NCC(=O)N[C@@H](CCCC)C(=O)N[C@H]1CCC(=O)NCCCC[C@@H](C(N)=O)NC(=O)[C@H](Cc2c[nH]c3ccccc23)NC(=O)[C@H](CCCNC(=N)N)NC(=O)[C@@H](Cc2ccccc2)NC(=O)[C@@H]2C[C@@H](O)CN2C1=O`, the Ki amounted to 130 nM in assay [1], 8 nM on Melanocortin receptor 3, 3 nM at Melanocortin receptor 5 and 0.33 nM on Melanocortin receptor 4 [2]. The EC50 at Melanocortin receptor 4 [3] came to 1 nM. Also, the Activity is 110% in the assay with Rattus norvegicus [4] and 76% in the assay with Rattus norvegicus [5]. For the same compound, the “Food intake relative to control” value in the assay with Rattus norvegicus [6] was 94%.

In the case of `CCCC[C@H](NC(=O)[C@H](CCC(=O)O)NC(=O)[C@H](Cc1c[nH]cn1)NC(=O)[C@H](CCC(=O)O)NC(=O)[C@H](CCC(=O)O)NC(=O)CNC(=O)COCCOCCNC(=O)CCCCCCCCCCCCCCCc1nnn[nH]1)C(=O)N[C@H]1CCC(=O)NCCCC[C@@H](C(N)=O)NC(=O)[C@H](Cc2c[nH]c3ccccc23)NC(=O)[C@H](CCCNC(=N)N)NC(=O)[C@@H](Cc2ccccc2)NC(=O)[C@@H]2C[C@@H](O)CN2C1=O`, the inhibitory constant (Ki) was 8100 nM in assay [1], 450 nM on Melanocortin receptor 3, 110 nM on Melanocortin receptor 5 and 7.8 nM on Melanocortin receptor 4 [2]. Besides, the Activity came to 75% in the assay with Rattus norvegicus [4] and 79% in the assay on Rattus norvegicus [5]. The “Food intake relative to control” value with Rattus norvegicus [6] is on record as 88%.

On to `CCCC[C@H](NC(=O)[C@H](CCC(=O)O)NC(=O)[C@H](CCCN=C(N)N)NC(=O)[C@H](CCC(=O)O)NC(=O)[C@H](CCC(=O)O)NC(=O)CNC(=O)COCCOCCNC(=O)CCCCCCCCCCCCCCCc1nnn[nH]1)C(=O)N[C@H]1CCC(=O)NCCCC[C@@H](C(N)=O)NC(=O)[C@H](Cc2c[nH]c3ccccc23)NC(=O)[C@H](CCCN=C(N)N)NC(=O)[C@@H](Cc2ccccc2)NC(=O)[C@@H]2C[C@@H](O)CN2C1=O`, for which the Ki in assay [1] was over 10000 nM; on Melanocortin receptor 3, 1100 nM; at Melanocortin receptor 5, 270 nM; on Melanocortin receptor 4 [2], 35 nM. For the same compound, on Melanocortin receptor 4 [3], the EC50 came to 270 nM.

In the case of `CCCC[C@H](NC(=O)[C@H](CCCNC(=N)N)NC(=O)[C@H](Cc1cnc[nH]1)NC(=O)[C@H](CCC(N)=O)NC(=O)[C@H](CO)NC(=O)CNC(=O)COCCOCCNC(=O)CCCCCCCCCCCCCCCc1nnn[nH]1)C(=O)N[C@H]1CCC(=O)NCCCC[C@@H](C(N)=O)NC(=O)[C@H](Cc2c[nH]c3ccccc23)NC(=O)[C@H](CCCNC(=N)N)NC(=O)[C@@H](Cc2ccccc2)NC(=O)[C@@H]2C[C@@H](O)CN2C1=O`, the Ki in assay [1] amounted to 44 nM; at Melanocortin receptor 3 it was 27 nM; on Melanocortin receptor 5 it was 3 nM; at Melanocortin receptor 4 [2] it was 0.08 nM. Moreover, on Melanocortin receptor 4 [3], the EC50 turned out to be 4.7 nM. Moreover, the Activity with Rattus norvegicus [4] came out at 46%; with Rattus norvegicus [5] it was 51%. Further, the “Food intake relative to control” value in the assay with Rattus norvegicus [6] is 83%.

`CCCC[C@H](NC(=O)[C@H](CNC(C)C)NC(=O)[C@H](Cc1cnc[nH]1)NC(=O)[C@H](CCC(N)=O)NC(=O)[C@H](CO)NC(=O)CNC(=O)COCCOCCNC(=O)CCCCCCCCCCCCCCCc1nnn[nH]1)C(=O)N[C@H]1CCC(=O)NCCCC[C@@H](C(N)=O)NC(=O)[C@H](Cc2c[nH]c3ccccc23)NC(=O)[C@H](CCCNC(=N)N)NC(=O)[C@@H](Cc2ccccc2)NC(=O)[C@@H]2C[C@@H](O)CN2C1=O`: the Ki in assay [1] worked out at 270 nM; at Melanocortin receptor 3, 13 nM; on Melanocortin receptor 5, 3.4 nM; at Melanocortin receptor 4 [2] it was 0.26 nM. Further, on Melanocortin receptor 4 [3], the EC50 came to 15 nM. The Activity in the assay with Rattus norvegicus [4] turned out to be 50%; in the assay on Rattus norvegicus [5] it was 40%. Moreover, the “Food intake relative to control” value in the assay on Rattus norvegicus [6] is on record as 72%.

On to `CCCC[C@H](NC(=O)[C@H](CO)NC(=O)[C@H](CCCCN=C(N)N)NC(=O)[C@H](CCC(N)=O)NC(=O)[C@H](CO)NC(=O)CNC(C)=O)C(=O)N[C@H]1CCC(=O)NCCCC[C@@H](C(N)=O)NC(=O)[C@H](Cc2c[nH]c3ccccc23)NC(=O)[C@H](CCCN=C(N)N)NC(=O)[C@@H](Cc2ccccc2)NC(=O)[C@@H]2C[C@@H](O)CN2C1=O`, for which the inhibition constant Ki in assay [1] came to 73 nM; at Melanocortin receptor 3, 22 nM; at Melanocortin receptor 5, 4.3 nM; at Melanocortin receptor 4 [2], 1 nM. At Melanocortin receptor 4 [3], the EC50 amounted to 0.47 nM.
